According to patent publication US20220232834A1, “PSEUDOMONAS CHLORORAPHIS SPECIES AND ITS USE IN THE CONTROL OF DISEASES CAUSED BY BACTERIA AND FUNGI” (T3 BIOSCIENCE, LLC, priority 2021, published 2022):
Converted amounts (≈) assume the structure as drawn. Like-named read-outs stand apart in the source and are kept apart here. Marks after values point to notes of the source that are not given here.

Legend:
Staphyllococcus aureus = conditions: Ref 1; producer Pseudomonas sp. Ki19; cited from earlier work
[1] = tested on: Venturia inaequalis VI19-032; assay: microbe, parasite or virus in culture; assay type: cell-based; conditions: VI19032
Aspergillus fumigatus = conditions: Ref 1; producer Pseudomonas sp. Ki19; cited from earlier work
[2] = tested on: Streptococcus mutans ATCC 25175; conditions: Ref 6; producer Pseudomonas aurantiaca; cited from earlier work
Fusarium culmorum = conditions: Ref 1; producer Pseudomonas sp. Ki19; cited from earlier work
[3] = tested on: Phytophthora infestans 88069; assay: microbe, parasite or virus in culture; assay type: cell-based
Botrytis cinerea CA17 = assay: microbe, parasite or virus in culture; assay type: cell-based
Candida albicans = conditions: Ref 1; producer Pseudomonas sp. Ki19; cited from earlier work
[4] = tested on: Bacillus subtilis subsp. spizizenii ATCC 6633; conditions: Ref 6; producer Pseudomonas aurantiaca; cited from earlier work
[5] = tested on: Ralstonia solanacearum K60; assay: microbe, parasite or virus in culture; assay type: cell-based
[6] = Ref 5, producer Pseudomonas sp. DC165, cited from earlier work
[7] = tested on: Staphylococcus aureus ATCC 12600; conditions: Ref 6; producer Pseudomonas aurantiaca; cited from earlier work
Drechslera sorokiniana = conditions: Ref 1; producer Pseudomonas sp. Ki19; cited from earlier work
[8] = tested on: Xanthomonas euvesicatoria 75-3; assay: microbe, parasite or virus in culture; assay type: cell-based; conditions: 753
[9] = tested on: Pseudomonas syringae. pv. tomato PT30; assay: microbe, parasite or virus in culture; assay type: cell-based
[10] = tested on: Staphylococcus epidermidis ATCC 14990; conditions: Ref 6; producer Pseudomonas aurantiaca; cited from earlier work
Pseudomonas sevastanoi = conditions: Ref 1; producer Pseudomonas sp. Ki19; cited from earlier work
[11] = tested on: Clavibacter michiganensis subsp. michiganensis 382; assay: MIC value study of 1214-CHY4 metabolites; assay type: cell-based
[12] = tested on: Enterococcus hirae ATCC 8043; conditions: Ref 6; producer Pseudomonas aurantiaca; cited from earlier work
[13] = tested on: Alternaria alternata, Phytophthora sp., Fusarium solani, F. oxysporum; conditions: Ref 12; producer P. chlororaphis MCC2693; cited from earlier work
Botrytis cinerea = conditions: cited from earlier work
Phytophthora infestans = conditions: cited from earlier work
Vibrio anguillarum C312 = conditions: Ref 5; producer P. aeruginosa PA31x; cited from earlier work
Fusarium oxysporum = conditions: cited from earlier work
Seiridium cardinale = conditions: Ref 4; producer P. chlororaphis subsp. aureofaciens M71; cited from earlier work
[14] = tested on: Gaeumannomyces graminis var. tritici.; conditions: Ref 6; producer P. fluorescens 2-79; cited from earlier work
[15] = tested on: 22 bacteria and fungi, including Gram-positive bacteria mycobacteria; conditions: Ref 3-4; producer Pseudomonas sp. B-9004; cited from earlier work
Staphylococcus aureus = conditions: Ref 3-4; producer Pseudomonas sp. B-9004; cited from earlier work
[16] = tested on: Pseudomonas syringae. pv. lachrymans 1188-1; assay: microbe, parasite or virus in culture; assay type: cell-based; conditions: read-out: Diameter of Growth Inhibition Zone
Dickeya dadantii 3937 = assay: microbe, parasite or virus in culture; assay type: cell-based; conditions: Dickeya dadantii, 3937, read-out: Diameter of Growth Inhibition Zone
[17] = tested on: Pectobacterium carotovorum subsp brasillensis 944; assay: microbe, parasite or virus in culture; assay type: cell-based; conditions: read-out: Diameter of Growth Inhibition Zone
Erwinia amylovora 110 = assay: microbe, parasite or virus in culture; assay type: cell-based; conditions: Erwinia amylovora, 110, read-out: Diameter of Growth Inhibition Zone
[18] = tested on: Ralstonia solanacearum Pss4; assay: microbe, parasite or virus in culture; assay type: cell-based; conditions: PSS4, read-out: Diameter of Growth Inhibition Zone
Erwinia amylovora DM1 = assay: microbe, parasite or virus in culture; assay type: cell-based; conditions: DM1, read-out: Diameter of Growth Inhibition Zone
[19] = tested on: Ralstonia solanacearum K60; assay: microbe, parasite or virus in culture; assay type: cell-based; conditions: K60, read-out: Diameter of Growth Inhibition Zone
[20] = tested on: Pectobacterium carotovorum subsp. carotovorum wpp14 945; assay: microbe, parasite or virus in culture; assay type: cell-based; conditions: read-out: Diameter of Growth Inhibition Zone
[21] = tested on: Pseudomonas syringae. pv. tomato PT30; assay: microbe, parasite or virus in culture; assay type: cell-based; conditions: read-out: Diameter of Growth Inhibition Zone
Erwinia amylovora 1189 = assay: microbe, parasite or virus in culture; assay type: cell-based; conditions: Erwinia amylovora, 1189, read-out: Diameter of Growth Inhibition Zone
[22] = tested on: Xanthomonas campestris pv. pruni; assay: microbe, parasite or virus in culture; assay type: cell-based; conditions: read-out: Diameter of Growth Inhibition Zone
Erwinia amylovora CA11 = assay: microbe, parasite or virus in culture; assay type: cell-based; conditions: CA11, read-out: Diameter of Growth Inhibition Zone
[23] = tested on: Pseudomonas savastanoi pv. savastanoi; assay: microbe, parasite or virus in culture; assay type: cell-based; conditions: read-out: Diameter of Growth Inhibition Zone
Erwinia amylovora 88 = assay: microbe, parasite or virus in culture; assay type: cell-based; conditions: Erwinia amylovora, 88, read-out: Diameter of Growth Inhibition Zone
[24] = tested on: Xanthomonas axonopodis pv. citri N40-SO5; assay: plate diffusion assay; assay type: cell-based; conditions: read-out: Diameter of Growth Inhibition Zone
[25] = tested on: Pectobacterium parmentieri UPP163 936; assay: microbe, parasite or virus in culture; assay type: cell-based; conditions: UPP163936, read-out: Diameter of Growth Inhibition Zone
[26] = tested on: Xanthomonas arboricola pv. juglandis 417; assay: microbe, parasite or virus in culture; assay type: cell-based; conditions: read-out: Diameter of Growth Inhibition Zone
[27] = tested on: Xanthomonas campestris pv. vesicatoria XV-16; assay: microbe, parasite or virus in culture; assay type: cell-based; conditions: read-out: Diameter of Growth Inhibition Zone
[28] = tested on: Xanthomonas arboricola pv. juglandis 219; assay: microbe, parasite or virus in culture; assay type: cell-based; conditions: read-out: Diameter of Growth Inhibition Zone
[29] = tested on: Pseudomonas syringae. pv syringae 7046; assay: microbe, parasite or virus in culture; assay type: cell-based; conditions: read-out: Diameter of Growth Inhibition Zone
[30] = tested on: Xanthomonas axonopodis pv. citri-Miami XC2002-00010; assay: plate diffusion assay; assay type: cell-based; conditions: read-out: Diameter of Growth Inhibition Zone
[31] = tested on: Pectobacterium atrosepticum 942; assay: microbe, parasite or virus in culture; assay type: cell-based; conditions: Pectobacterium atrosepticum, 942, read-out: Diameter of Growth Inhibition Zone
[32] = tested on: Clavibacter michiganensis subsp. michiganensis Cmm 0317; assay: plate diffusion assay; assay type: cell-based; conditions: 200 μg/mL, read-out: Diameter of Growth Inhibition Zone
[33] = tested on: Clavibacter michiganensis subsp. michiganensis NCPPB382; assay: plate diffusion assay; assay type: cell-based; conditions: 200 μg/mL, read-out: Diameter of Growth Inhibition Zone
[34] = tested on: Clavibacter michiganensis subsp. michiganensis Cmm 0690; assay: plate diffusion assay; assay type: cell-based; conditions: 200 μg/mL, read-out: Diameter of Growth Inhibition Zone

CCCCCCc1c(O)cc(CCCCC)cc1O (single isomer, unassigned) [Peak 2, 2-hexyl-5-pentylbenzene-1,3-diol]
Activity (MIC values) (Staphyllococcus aureus): Staphyllococcus aureus (7 μg/mL) | MIC [1]: > 100 µg/mL | Activity (MIC values) (Aspergillus fumigatus): Aspergillus fumigatus (50 μg/mL) | Activity (MIC values) [2]: ATCC 25175(4.2 μg/mL) | Activity (MIC values) (Fusarium culmorum): Fusarium culmorum (50 μg/mL) | MIC [3]: > 100 µg/mL | MIC (Botrytis cinerea CA17): > 100 µg/mL | Activity (MIC values) (Candida albicans): Candida albicans (50 μg/mL) | Activity (MIC values) [4]: ATCC 6633(4.2 μg/mL) | MIC ([5]; Ralstonia solanacearum, K60): > 25000 µg/mL | Activity: free radical scavenging [6]: Free radical scavenging substances | Activity: free radical scavenging ([6]; listed as Resorstatin): free radical scavenging substance | Activity (MIC values) [7]: ATCC 12600 (2.1 μg/mL) | Activity (MIC values) (Drechslera sorokiniana): Drechslera sorokiniana (50 μg/mL) | MIC [8]: 78 µg/mL (≈ 295 µM) | MIC [9]: 312 µg/mL (≈ 1180 µM) | Activity (MIC values) [10]: ATCC 14990 (4.2 μg/mL) | Activity (MIC values) (Pseudomonas sevastanoi): Pseudomonas sevastanoi (50 μg/mL) | MIC [11]: 1.56^c μg/mL | MIC ([11]; Clavibacter michiganensis): 1.56 µg/mL | Activity (MIC values) [12]: ATCC 8043 (4.2 μg/mL)

CCCCCCCc1cc(O)c(CCCCCC)c(O)c1 (single isomer, unassigned) [Peak 3, 2-hexyl-5-heptylbenzene-1,3-diol]
MIC [1]: > 100 µg/mL | Activity (MIC values) [2]: ATCC 25175(8.4 μg/mL) | MIC [3]: > 100 µg/mL | MIC (Botrytis cinerea CA17): > 100 µg/mL | Activity (MIC values) [4]: ATCC 6633(33.4 μg/mL) | MIC ([5]; Ralstonia solanacearum, K60): > 25000 µg/mL | Activity (MIC values) [7]: ATCC 12600 (4.2 μg/mL) | MIC [8]: 78 µg/mL (≈ 267 µM) | MIC [9]: 156 µg/mL (≈ 533 µM) | Activity (MIC values) [10]: ATCC 14990 (4.2 μg/mL) | MIC ([11]; Clavibacter michiganensis): 0.78 µg/mL | MIC ([11]; modified broth dilution (microdilution) method): 0.78^c μg/mL | Activity (MIC values) [12]: ATCC 8043 (8.4 μg/mL)

O=C(O)c1cccc2nc3ccccc3nc12 (single isomer, unassigned) [Peak 4, phenazine-1-carboxylic acid]
MIC [1]: 31.3 µg/mL (≈ 140 µM) | Active Against (order) [13]: Alternaria alternata > Phytophthora sp. > | MIC [3]: 1.56 µg/mL (≈ 6.96 µM) | Active Against (Botrytis cinerea; Ref 1, producer P. aeruginosa LV Strain): Botrytis cinerea | reported to be effective against (Botrytis cinerea; Upadhyay and Srivastava, 2011): effective | MIC (Botrytis cinerea CA17): 62.5 µg/mL (≈ 279 µM) | Active Against (Phytophthora infestans; Ref 2, producer P. fluorescens LBUM636): Phytophthora infestans | Active Against (Phytophthora infestans; Ref 3, producer P. fluorescens LBUM223): Phytophthora infestans | MIC ([5]; Ralstonia solanacearum, K60): 6.25 µg/mL (≈ 27.9 µM) | MIC ([5]; agar dilution method): 6.25^b μg/mL | Active Against (Vibrio anguillarum C312): Vibrio anguillarum C312 | MIC [8]: 100 µg/mL (≈ 446 µM) | MIC [9]: 100 µg/mL (≈ 446 µM) | Active Against (Fusarium oxysporum; Ref 7, producer P. fluorescens strain Psd): Fusarium oxysporum | reported to be effective against (Fusarium oxysporum; Upadhyay and Srivastava, 2011): effective | MIC ([11]; Clavibacter michiganensis): 100 µg/mL | Active Against (Seiridium cardinale): Seiridium cardinale | Active Against [14]: Gaeumannomyces graminis var. tritici.

CCCCCCc1c(O)cc(CCC)cc1O [DB2073]
Activity [15]: Active against 22 bacteria and fungi, | Activity (MIC values) (Staphylococcus aureus): (25 μg/mL)

[H]/N=C(/N)N[C@H]1[C@H](O)[C@@H](O)[C@H](O[C@@H]2O[C@@H](C)[C@](O)(C=O)[C@H]2O[C@@H]2O[C@@H](CO)[C@H](O)[C@@H](O)[C@@H]2NC)[C@@H](N/C(N)=N\[H])[C@@H]1O [Streptomycin]
zone of inhibition at 200 µg/mL [16]: 6 mm | zone of inhibition at 200 µg/mL (Dickeya dadantii 3937): 5 mm | zone of inhibition at 200 µg/mL [17]: 0 mm | zone of inhibition at 200 µg/mL (Erwinia amylovora 110): 5 mm | zone of inhibition at 200 µg/mL [18]: 3 mm | zone of inhibition at 200 µg/mL (Erwinia amylovora DM1): 0 mm | MIC ([5]; Ralstonia solanacearum, K60): 25 µg/mL (≈ 43 µM) | zone of inhibition at 200 µg/mL [19]: 3 mm | zone of inhibition at 200 µg/mL [20]: 0 mm | zone of inhibition at 200 µg/mL [21]: 6 mm | zone of inhibition at 200 µg/mL (Erwinia amylovora 1189): 5 mm | zone of inhibition at 200 µg/mL [22]: 0 mm | zone of inhibition at 200 µg/mL (Erwinia amylovora CA11): 0 mm | zone of inhibition at 200 µg/mL [23]: 6 mm | zone of inhibition at 200 µg/mL (Erwinia amylovora 88): 0 mm | zone of inhibition at 200 µg/mL [24]: 22 mm | zone of inhibition at 200 µg/mL [25]: 5 mm | zone of inhibition at 200 µg/mL [26]: 10 mm | zone of inhibition at 200 µg/mL [27]: 10 mm | zone of inhibition at 200 µg/mL [28]: 0 mm | MIC [8]: 50 µg/mL (≈ 86 µM) | MIC [9]: 3.13 µg/mL (≈ 5.38 µM) | MIC ([11]; Clavibacter michiganensis): 12.5 µg/mL | zone of inhibition at 200 µg/mL [29]: 5 mm | zone of inhibition at 200 µg/mL [30]: 21 mm | zone of inhibition at 200 µg/mL [31]: 0 mm

CN[C@H](CC(C)C)C(=O)N[C@H]1C(=O)N[C@@H](CC(N)=O)C(=O)N[C@H]2C(=O)N[C@H]3C(=O)N[C@H](C(=O)N[C@H](C(=O)O)c4cc(O)cc(O)c4-c4cc3ccc4O)[C@H](O)c3ccc(c(Cl)c3)Oc3cc2cc(c3O[C@@H]2O[C@H](CO)[C@@H](O)[C@H](O)[C@H]2O[C@H]2C[C@](C)(N)[C@H](O)[C@H](C)O2)Oc2ccc(cc2Cl)[C@H]1O [Vancomycin, reference compound]
zone of inhibition at 200 µg/mL [32]: 11 mm | zone of inhibition at 200 µg/mL [33]: 13 mm | zone of inhibition at 200 µg/mL [34]: 12 mm | MIC ([5]; Ralstonia solanacearum, K60): 100 µg/mL (≈ 69 µM) | MIC [8]: 50 µg/mL (≈ 34.5 µM) | MIC [9]: 100 µg/mL (≈ 69 µM) | MIC ([11]; Clavibacter michiganensis): 0.39 µg/mL
